# Results: PMC8523698, “Preclinical characterization of an intravenous coronavirus 3CL protease inhibitor for the potential treatment of COVID19” (Nature Communications, 2021)
# Where “and” joins values, the source holds several entries; their conditions need not be identical. Equal entries are not always repeated. Where two headings read alike, the source gives them in different places.
# Assays:
# MATE2K = molecular target: T1, MATE2K (Homo sapiens, UniProt Q86VL8); assay: Transporter inhibition using transfected HEK293 cells; assay type: in vitro ADME; conditions: IC50, [14C]Metformin (20 µM)
# T1 construct: expressed in transfected cells; host or cells: HEK293
# Description: For the inhibition studies, HEK293 cells were washed three times with warm transport buffer (Hanks’ balanced salt solution with 20 mM 4-(2-Hydroxyethyl) piperazine-1-ethanesulfonic acid, pH 7.4) followed by incubation with test compounds containing probe substrates: 10 or 20 µM [^14C]-metformin (OCT1, OCT2, MATE1, MATE2K), 0.5 µM [^3H] para-aminohippuric acid (OAT1), 0.1 µM [^3H] estrone-3-sulfate (OAT3) or 0.5 µM rosuvastatin (OATP1B1/1B3). Uptake was terminated by washing cells at least three times with ice-cold transport buffer and then lysing with 0.2 mL of scintillation fluid or 0.225 mL of methanol containing internal standard. For radiolabeled compounds, radioactivity in each sample was quantified by measurement on MicroBeta (Perkin Elmer). For rosuvastatin, cell extracts were dried down under nitrogen and reconstituted in 50:50 (v:v) methanol:water prior to injection onto a LC-MS/MS system. The total cellular protein content was determined by using a BCA Protein Assay Kit (Pierce Biotechnology) following the manufacturer’s protocol. Uptake ratio was then derived as a ratio of accumulation in transfected cells to accumulation in wild-type cells. The half-maximal inhibitory concentration (IC50) for each transporter was calculated in GraphPad Prism.
# BCRP = BCRP (Homo sapiens, UniProt Q9UNQ0); assay: Transporter inhibition using membrane vesicles; conditions: IC50, Rosuvastatin (0.2 µM)
# OCT1 = molecular target: T2, OCT1 (Homo sapiens, UniProt O15245); assay: Transporter inhibition using transfected HEK293 cells; assay type: in vitro ADME; conditions: IC50, [14C]Metformin (10 µM)
# T2 construct: expressed in transfected cells; host or cells: HEK293
# T2 sequence (O15245 1-554): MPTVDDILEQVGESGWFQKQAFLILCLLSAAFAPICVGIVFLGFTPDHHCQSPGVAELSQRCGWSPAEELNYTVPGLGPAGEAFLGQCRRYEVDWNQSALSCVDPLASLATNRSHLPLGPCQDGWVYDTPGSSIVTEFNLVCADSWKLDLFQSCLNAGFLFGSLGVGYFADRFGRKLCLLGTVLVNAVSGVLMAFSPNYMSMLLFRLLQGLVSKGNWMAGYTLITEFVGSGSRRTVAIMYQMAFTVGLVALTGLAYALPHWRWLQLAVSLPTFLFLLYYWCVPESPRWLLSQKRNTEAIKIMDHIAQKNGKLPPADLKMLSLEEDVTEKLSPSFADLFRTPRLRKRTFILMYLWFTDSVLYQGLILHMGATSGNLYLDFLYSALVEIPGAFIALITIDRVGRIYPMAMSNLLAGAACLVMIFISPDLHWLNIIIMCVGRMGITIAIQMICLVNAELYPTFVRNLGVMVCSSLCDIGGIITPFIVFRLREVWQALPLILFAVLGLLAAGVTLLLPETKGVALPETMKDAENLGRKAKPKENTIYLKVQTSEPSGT
# OAT3 = molecular target: T3, OAT3 (Homo sapiens, UniProt Q8TCC7); assay: as above
# T3 sequence (Q8TCC7 1-542): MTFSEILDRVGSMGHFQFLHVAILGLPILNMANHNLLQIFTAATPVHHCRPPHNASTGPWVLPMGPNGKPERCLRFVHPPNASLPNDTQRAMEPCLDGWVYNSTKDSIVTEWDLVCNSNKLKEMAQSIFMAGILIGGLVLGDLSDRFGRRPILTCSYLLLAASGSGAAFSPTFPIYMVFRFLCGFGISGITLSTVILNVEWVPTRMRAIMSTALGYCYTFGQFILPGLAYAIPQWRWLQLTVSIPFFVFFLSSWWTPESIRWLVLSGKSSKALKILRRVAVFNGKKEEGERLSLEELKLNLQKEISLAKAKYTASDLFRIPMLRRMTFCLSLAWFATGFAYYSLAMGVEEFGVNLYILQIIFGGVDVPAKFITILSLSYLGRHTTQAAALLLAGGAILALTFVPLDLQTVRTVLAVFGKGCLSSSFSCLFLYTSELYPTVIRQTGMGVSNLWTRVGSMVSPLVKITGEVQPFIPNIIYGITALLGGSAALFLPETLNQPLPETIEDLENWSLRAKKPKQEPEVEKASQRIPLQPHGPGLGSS
# hERG channel = hERG channel (Homo sapiens, UniProt Q12809); assay: hERG potassium channel current assay; conditions: for hERG margin in reference to projected unbound human Cmax: 300 µM vs projected Cmax at projected human efficacious dose
# [1] = Plasma protein binding by equilibrium dialysis; conditions: for fraction unbound at 6 h, 5 uM / fraction unbound at 6 h / fraction unbound at 6 h, 3.44 uM: rat, plasma
# OCT2 = molecular target: T4, OCT2 (Homo sapiens, UniProt O15244); assay: Transporter inhibition using transfected HEK293 cells
# T4 sequence (O15244 1-555): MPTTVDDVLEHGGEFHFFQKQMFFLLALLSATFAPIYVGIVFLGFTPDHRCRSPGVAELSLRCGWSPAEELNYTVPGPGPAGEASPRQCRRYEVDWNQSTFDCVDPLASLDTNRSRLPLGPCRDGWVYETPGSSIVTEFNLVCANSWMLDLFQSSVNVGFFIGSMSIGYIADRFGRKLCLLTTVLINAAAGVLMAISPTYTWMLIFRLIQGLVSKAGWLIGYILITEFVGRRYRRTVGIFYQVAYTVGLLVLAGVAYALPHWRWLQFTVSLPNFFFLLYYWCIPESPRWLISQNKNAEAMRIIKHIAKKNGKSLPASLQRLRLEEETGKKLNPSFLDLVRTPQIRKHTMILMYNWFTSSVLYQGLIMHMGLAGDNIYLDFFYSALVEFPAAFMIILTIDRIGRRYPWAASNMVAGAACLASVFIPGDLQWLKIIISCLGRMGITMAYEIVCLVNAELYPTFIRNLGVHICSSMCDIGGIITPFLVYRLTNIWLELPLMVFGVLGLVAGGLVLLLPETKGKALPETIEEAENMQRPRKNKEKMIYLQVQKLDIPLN
# hERG channel, sequence (Q12809 whole entry): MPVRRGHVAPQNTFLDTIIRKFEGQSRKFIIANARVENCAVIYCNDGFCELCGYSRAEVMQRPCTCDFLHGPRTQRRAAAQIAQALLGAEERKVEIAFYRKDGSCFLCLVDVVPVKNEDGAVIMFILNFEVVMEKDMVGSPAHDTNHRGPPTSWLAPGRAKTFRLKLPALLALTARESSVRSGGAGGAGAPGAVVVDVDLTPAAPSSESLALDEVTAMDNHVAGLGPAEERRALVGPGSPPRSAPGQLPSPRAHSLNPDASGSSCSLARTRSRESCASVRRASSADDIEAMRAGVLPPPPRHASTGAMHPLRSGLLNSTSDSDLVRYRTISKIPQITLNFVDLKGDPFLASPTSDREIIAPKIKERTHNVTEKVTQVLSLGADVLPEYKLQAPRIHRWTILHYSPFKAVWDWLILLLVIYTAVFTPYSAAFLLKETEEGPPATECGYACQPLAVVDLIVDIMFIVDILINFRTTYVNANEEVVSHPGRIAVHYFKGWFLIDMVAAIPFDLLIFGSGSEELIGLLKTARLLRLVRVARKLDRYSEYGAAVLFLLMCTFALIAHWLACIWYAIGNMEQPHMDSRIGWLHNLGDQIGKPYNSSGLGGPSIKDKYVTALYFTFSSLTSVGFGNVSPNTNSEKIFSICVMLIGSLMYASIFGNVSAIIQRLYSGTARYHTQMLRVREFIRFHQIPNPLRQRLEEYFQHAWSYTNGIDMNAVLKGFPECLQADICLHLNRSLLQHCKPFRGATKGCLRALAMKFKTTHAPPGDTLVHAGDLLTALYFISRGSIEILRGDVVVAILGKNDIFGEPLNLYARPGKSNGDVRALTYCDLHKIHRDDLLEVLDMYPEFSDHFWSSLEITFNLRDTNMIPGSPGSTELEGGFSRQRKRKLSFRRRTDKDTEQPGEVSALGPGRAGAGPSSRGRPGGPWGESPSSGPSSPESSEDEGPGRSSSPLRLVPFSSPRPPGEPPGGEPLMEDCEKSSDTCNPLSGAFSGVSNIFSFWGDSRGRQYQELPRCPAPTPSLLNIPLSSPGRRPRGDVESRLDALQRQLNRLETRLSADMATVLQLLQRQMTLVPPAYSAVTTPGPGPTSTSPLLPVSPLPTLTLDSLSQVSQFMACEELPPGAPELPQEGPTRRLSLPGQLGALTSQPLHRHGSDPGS
# T1 sequence (Q86VL8 1-566 isoform Q86VL8-3): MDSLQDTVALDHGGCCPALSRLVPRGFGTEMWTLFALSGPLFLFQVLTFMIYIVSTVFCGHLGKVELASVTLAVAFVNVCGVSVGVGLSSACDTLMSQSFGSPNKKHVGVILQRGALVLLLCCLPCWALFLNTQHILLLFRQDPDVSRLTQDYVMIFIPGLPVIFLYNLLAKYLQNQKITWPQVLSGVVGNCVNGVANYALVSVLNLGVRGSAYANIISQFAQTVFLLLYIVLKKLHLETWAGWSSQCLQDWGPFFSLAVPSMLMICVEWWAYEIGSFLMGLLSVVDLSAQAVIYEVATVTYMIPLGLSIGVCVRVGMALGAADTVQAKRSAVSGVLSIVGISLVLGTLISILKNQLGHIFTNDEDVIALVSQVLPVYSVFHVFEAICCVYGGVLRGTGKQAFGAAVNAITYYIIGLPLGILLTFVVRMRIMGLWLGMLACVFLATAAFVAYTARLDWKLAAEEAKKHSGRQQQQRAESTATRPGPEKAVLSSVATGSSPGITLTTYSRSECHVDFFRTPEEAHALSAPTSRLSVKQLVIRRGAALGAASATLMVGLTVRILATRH
# BCRP, sequence (Q9UNQ0 whole entry): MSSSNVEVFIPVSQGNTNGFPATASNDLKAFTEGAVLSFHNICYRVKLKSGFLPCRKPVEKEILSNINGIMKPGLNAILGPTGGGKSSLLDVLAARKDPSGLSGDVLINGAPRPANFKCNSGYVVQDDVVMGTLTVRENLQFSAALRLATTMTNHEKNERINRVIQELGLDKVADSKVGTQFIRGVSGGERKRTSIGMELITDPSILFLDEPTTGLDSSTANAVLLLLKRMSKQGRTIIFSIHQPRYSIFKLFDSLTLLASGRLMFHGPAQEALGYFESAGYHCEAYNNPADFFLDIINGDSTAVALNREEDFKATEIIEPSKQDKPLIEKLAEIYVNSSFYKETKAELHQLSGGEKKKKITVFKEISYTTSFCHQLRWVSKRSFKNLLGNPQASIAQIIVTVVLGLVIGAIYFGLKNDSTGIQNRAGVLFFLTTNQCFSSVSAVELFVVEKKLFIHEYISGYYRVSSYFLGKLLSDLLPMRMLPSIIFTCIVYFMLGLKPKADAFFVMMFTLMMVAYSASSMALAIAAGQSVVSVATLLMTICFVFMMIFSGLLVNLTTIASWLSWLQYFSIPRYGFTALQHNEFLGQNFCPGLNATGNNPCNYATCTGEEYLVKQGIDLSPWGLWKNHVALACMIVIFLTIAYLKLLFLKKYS
structure (smiles),measurement,setting,value
COc1cccc2[nH]c(C(=O)N[C@@H](CC(C)C)C(=O)N[C@@H](C[C@@H]3CCNC3=O)C(=O)CO)cc12 [PF-00835231],IC50,MATE2K,180 µM
same,IC50,"MATE2K; human, HEK293 cells stably transfected with MATE2K, pH 7.4, probe [14C]-metformin (20 µM)",> 20 µM
same,IC50,BCRP,19.5 µM
same,IC50,OCT1,36.3 µM
same,IC50,"OCT1; human, HEK293 cells stably transfected with OCT1, pH 7.4, probe [14C]-metformin (10 µM)",> 20 µM
same,IC50,OAT3,> 300 µM
same,IC50,"OAT3; human, HEK293 cells transfected with OAT3, pH 7.4, probe [3H] estrone-3-sulfate (0.1 µM)",> 20 µM
same,hERG margin in reference to projected unbound human Cmax,hERG channel,600 fold
same,Individual fraction unbound,"[1]; Rat Wistar han plasma, 5.0 uM, replicates Day 1-3",0.368 and 0.323 and 0.339 and 0.35 and 0.268 and 0.363 and 0.364 and 0.263 and 0.326 and 0.358 and 0.285
same,"fraction unbound at 6 h, 5 uM","[1]; Wistar Han, pH 7.4, Fraction unbound, Geomean, Rat plasma, 5.0 uM, n 12",0.327
same,"fraction unbound at 6 h, 5 uM","[1]; Wistar Han, pH 7.4, Individual fraction unbound, Rat Wistar han plasma, 5.0 uM, replicates Day 1-3",0.343
same,fraction unbound at 6 h,"[1]; Wistar Hannover, pH 7.4, Plasma fu, Vdss input",0.327
same,fraction unbound at 6 h,"[1]; Wistar Hannover, pH 7.4, Unbound fraction fu (%CV), rat plasma (PF-07304814 Sprague-Dawley, PF-00835231 Wistar Hannover)",0.327
same,"fraction unbound at 6 h, 5 uM","[1]; Wistar Hannover, pH 7.4, fraction unbound Geomean, rat plasma, 5.0 uM, n=12",0.327
same,IC50,OCT2,> 300 µM
same,IC50,"OCT2; human, HEK293 cells stably transfected with OCT2, pH 7.4, probe [14C]-metformin (20 µM)",> 20 µM
COc1cccc2[nH]c(C(=O)N[C@@H](CC(C)C)C(=O)N[C@@H](C[C@@H]3CCNC3=O)C(=O)COP(=O)(O)O)cc12 [PF-07304814],IC50,MATE2K,> 300 µM
same,IC50,BCRP,238 µM and > 130 µM
same,IC50,OCT1,> 300 µM
same,IC50,"OAT3; IC50, [3H]ES (0.1 µM)",> 300 µM
same,hERG margin in reference to projected unbound human Cmax,hERG channel,"1,770 fold"
same,concentration up to which hERG current amplitude was not inhibited,hERG channel; human,300 µM
same,"fraction unbound at 6 h, 3.44 uM","[1]; Sprague-Dawley, pH 7.4, fraction unbound Geomean, rat plasma, 3.44 uM, n=12",0.379
same,"fraction unbound at 6 h, 3.44 uM","[1]; both, Sprague Dawley, pH 7.4, Individual fraction unbound, rat plasma, Sprague Dawley, male and female, 3.44 uM, Day 1",0.404
same,"fraction unbound at 6 h, 3.44 uM","[1]; both, Sprague Dawley, pH 7.4, Individual fraction unbound, rat plasma, Sprague Dawley, male and female, 3.44 uM, Day 2",0.362
same,"fraction unbound at 6 h, 3.44 uM","[1]; both, Sprague Dawley, pH 7.4, Individual fraction unbound, rat plasma, Sprague Dawley, male and female, 3.44 uM, Day 3",0.404
same,Individual fraction unbound,"[1]; rat plasma, Sprague Dawley, male and female, 3.44 uM, Day 1",0.384 and 0.405 and 0.491
same,Individual fraction unbound,"[1]; rat plasma, Sprague Dawley, male and female, 3.44 uM, Day 2",0.301 and 0.338 and 0.325
same,Individual fraction unbound,"[1]; rat plasma, Sprague Dawley, male and female, 3.44 uM, Day 3",0.406 and 0.385 and 0.381
same,IC50,"OCT2; IC50, [14C]Metformin (20 µM)",> 300 µM
